{"source": "patent EP0070133B1", "about": "“Secondary phenylethanol amines, processes for their preparation and their pharmaceutical application” (priority 1981, dated 1983)", "key": {"Female CFLP mice [1]": {"test_system": "Female CFLP mice", "test": "Effect on energy expenditure and food intake of mice", "type": "in vivo", "conditions": "Mus musculus, po, 21 h", "protocol": "Female CFLP mice each weighing approximately 24 g, were given food and water ad lib before and during the experiment. The compounds were dissolved in water by addition of one mole of hydrochloric acid per mole of compound and these solutions were administered orally to each of 12 mice. A further 12 mice were dosed orally with water. The mice were placed in boxes through which air was drawn and the oxygen content of the air leaving the boxes was measured. […] The food intake of the mice was measured over this same period of 21 hours. The results are expressed as a percentage of the mean food intake or rate of energy expenditure of the mice dosed with water."}, "[2]": {"test_system": "platelet aggregation in human whole blood", "test": "Collagen-induced platelet aggregation in human whole blood in vitro", "type": "cell-based", "conditions": "Final Concentration in Whole Blood 100 μM; collagen EC50 in presence of compound divided by control EC50", "method": "Collagen-induced platelet aggregation in human whole blood in vitro.\nCollagen added to stirred citrated blood causes platelet aggregation. As the platelets aggregate, the concentration of single platelets falls. […] Inhibitors of aggregation, such as aspirin and dipyridamole, reduce the response to collagen.\nCollagen (Hormon-Chemie, Munich) or 154 mM NaCl (control) was added to each aliquot of blood stirred at 1100 rpm in an aggregometer at 37° after 3 mins pre-incubation with compound or appropriate solvent. Aggregates were fixed by addition of 0.5 vol 4.5% formaldehyde or 0.05 vol phosphate-buffered glutaraldehyde. Single platelets were counted electronically. Responses, expressed as per cent fall in platelet count, were obtained to a range of collagen concentrations. The concentration producing 50% maximal effect (EC50) was estimated from log10 concentration-response curves. Dose-ratios were calculated by dividing the EC50 obtained in the presence of compound under test by the control EC50."}, "Female CFLP mice [3]": {"test_system": "Female CFLP mice", "test": "Anti-hyperglycaemic activity: subcutaneous glucose load in fasted mice, area under blood glucose curve", "type": "in vivo", "conditions": "1 μ moles/kg po, glucose 1 g/kg sc, 2 hour period, vs water control", "method": "Female CFLP mice, each weighing approximately 25 g, were fasted for 24 hours prior to the study. The compounds under study were administered orally as an aqueous solution to each of 6 mice. 6 mice were given water as a control. 30 minutes later a blood sample (20 µl) was obtained from the tail for the analysis of blood glucose. Immediately after taking this blood sample, glucose (1 g/kg body weight) was administered subcutaneously to each mouse. Blood samples were then obtained from each mouse at 30 minute intervals for 120 minutes.\nCompounds that produced a significant (P<0.05) reduction of blood glucose, compared with control mice given water, at any time interval, were considered active. The area under the blood glucose curve over the 2 hour period after the administration of the glucose was calculated for each compound and compared with the value for control animals."}, "rat ear": {"test_system": "rat ear", "test": "Anti-inflammatory activity: croton oil induced inflammation of the rat ear", "type": "in vivo", "conditions": "1.35 mg/rat ear, topical in 1% croton oil in tetrahydrofuran, ear weight after 6 hours; active = significant (5% level) reduction", "method": "The method used is based on that described by G. Tonelli eta/ (Endocrinology, 77, 625-634, 1965). An inflammation is induced in the rat ear by the application of 50 µl of a 1% solution of croton oil in tetrahydrofuran, test compounds being dissolved in the irritant vehicle. After 6 hours the inflammation is assessed by killing the animals and weighing the ears. Topical anti-inflammatory activity of a compound is generally considered to be shown when a significant (5% level) reduction in ear weight is seen compared to non-drug treated control."}}, "note": "Counter-ions that a name gives are not always drawn. Like-named read-outs stand apart in the source and are kept apart here."}
{"smiles": "CNCCOc1ccc(C[C@@H](C)NC[C@H](O)c2cccc(C(F)(F)F)c2)cc1", "note": "[Example 24, N-[2-(4-(2-Methylaminoethoxy)phenyl)-1-methylethyl]-2-hydroxy-2-(3-trifluoromethylphenyl)ethanamine dihydrochloride (RR,SS) diastereoisomer]", "values": [{"measurement": "response vs control in vivo at 6.6 mg/kg", "setting": "Female CFLP mice [1]; read-out: Mean Energy Expenditure (%)", "value": 139, "unit": "%"}, {"measurement": "response vs control in vivo at 6.6 mg/kg", "setting": "Female CFLP mice [1]; read-out: Mean Food Intake (%)", "value": 102, "unit": "%"}, {"measurement": "Dose-Ratio", "setting": "[2]", "value": 5.9}, {"measurement": "Reduction in area under Blood glucose curve (%)", "setting": "Female CFLP mice [3]", "value": 47, "unit": "%"}, {"measurement": "Activity", "setting": "rat ear", "value": "Active"}]}
